Measurements as given in patent US9181294B2, “Nucleoside analogues for the treatment of a viral infection, and method for evaluating the sensitivity to said treatment” (priority 2011, dated 2015).
Read-outs that look alike come from different tables or passages of the source.

What was measured:
[1] = system: HIV-1 pNL-4.3 clone (pNL4-3 wild type); assay: Antiviral test in HeLa-P4 cells (single cycle, CPRG beta-galactosidase test); format: cell-based
Procedure: HeLa-P4 cells are HeLa CD4 LTR-LacZ cells in which the expression of LacZ is induced by the trans-activating Tat protein of HIV, making it possible to precisely quantify the HIV-1 infectivity from a single replication cycle. HeLa-CD4 cells growing exponentially at a density of 1×10^4/ml are placed in 96-well plates and infected on the following day with 3 ng of HIV p24 antigen in the presence of various concentrations of compounds.
(§1) The titres for a single cycle of the virus were determined in HeLa-P4 cells. The cells were infected, in duplicate, in 96-well plates, with the HIV-1 pNL-4.3 clone (equivalent to 3 ng of p24 antigen). The titres for a single cycle of the viruses were determined 48 hours after infection by quantifying the beta-galactosidase activity in P4 lysates by means of a colorimetric test (CPRG test) based on cleavage of chlorophenol red-beta-D-galactopyranoside (CPRG) by beta-galactosidase. The 50% inhibitory concentration (IC50) was determined as the concentration of compound A providing 50% inhibition of beta-galactosidase levels compared with the untreated infected cells.
The antiviral activity of compound A according to the invention was evaluated using an amount of HIV corresponding to 3 ng of p24 antigen.
(§2) Compound A according to the invention was tested on the pNL4-3 virus optionally modified by site-directed mutagenesis, comprising or not comprising (wt) the mutations located in the reverse transcriptase gene and associated with resistance to the main NRTIs used in clinical practice. Tables 1A to 1C below group together the resistance indices of compound A according to the invention on the viruses with and without mutation.
(§3) The resistance index of a mutant represents the ratio of the concentration of compound capable of inhibiting by half (IC50) the growth of the mutant virus tested, to the concentration of compound capable of inhibiting by half (IC50) the growth of the wild-type virus.

[2] = system: pNL4-3 E138K; format: cell-based, HIV-1
Procedure: as §1, §2, §3
(§4) A resistance index greater than approximately 1.5 or 2 signifies that the viral strain is resistant to the treatment.

[3] = system: pNL4-3 K103N; format: cell-based, HIV-1
Procedure: as §1, §2, §3, §4

[4] = system: pNL4-3 K65R-M184V; format: cell-based, HIV-1
Procedure: as §1, §2, §3, §4

[5] = system: pNL4-3 K65R; format: cell-based, HIV-1
Procedure: as §1, §2, §3, §4

[6] = system: pNL4-3 M184V-M41L-L210W-T215Y; format: cell-based, HIV-1
Procedure: as §1, §2, §3, §4

[7] = system: pNL4-3 M184V; format: cell-based, HIV-1
Procedure: as §1, §2, §3, §4

[8] = system: pNL4-3 M41L-L210W-T215Y; format: cell-based, HIV-1
Procedure: as §1, §2, §3, §4

[9] = system: pNL4-3 T215Y; format: cell-based, HIV-1
Procedure: as §1, §2, §3, §4

[10] = system: pNL4-3 N155H; format: cell-based, HIV-1
[11] = system: pNL4-3 G140S-Q184H; assay: Resistance index on pNL4-3 virus modified by site-directed mutagenesis; format: cell-based, HIV-1; details: Table 1C; integrase-inhibitor-resistance mutant G140S-Q184H; ratio IC50 mutant / IC50 wild type
Procedure: as §1, §2
The resistance index of a mutant represents the ratio of the concentration of compound capable of inhibiting by half (IC50) the growth of the mutant virus tested, to the concentration of compound capable of inhibiting by half (IC50) the growth of the wild-type virus. […]

[12] = system: pNL4-3 Q184H; assay: as above; format: cell-based, HIV-1; details: Table 1C; integrase-inhibitor-resistance mutant Q184H; ratio IC50 mutant / IC50 wild type
[13] = system: LAI viruses in MT2 cells; assay: Antiviral test in MT2 cells (viral load on day 3); format: cell-based, HIV-1; details: Human immunodeficiency virus 1; MT2 cells infected with LAI viruses
Procedure: The MT2 cells were concentrated at 3×10^6/ml and infected with 10^7 viruses (LAI). The cells were distributed into 96-well plates (1×10^5/well) and incubated in the presence of various concentrations of compound A (in quadruplicate). The viral loads were determined on day 3 (Cobas AmpliPrep/Cobas TaqMan (CTM) HIV-1 v2 test).
Compound A was tested on MT2 cells infected with LAI viruses.

[14] = in vitro; format: cell-based; details: read-out: CC50 (50% cytotoxic concentration)
Procedure: A cell viability test measuring the absorbance at 560 and 690 nm using the yellow tetrazolium […] [3-(4,5-dimethyl-2-thiazolyl)-2,5-diphenyltetrazolium bromide] reagent was carried out with the tetrabenzoyladenosine in the HeLa-CD4, Vero, FH, MT2 and SupT1 cell lines.
Using various cell types (HeLa-CD4, Vero, FH, MT2 and SupT1), the CC50 (50% cytotoxic concentration) of compound A was measured at more than 100 μM in all cases.

[15] = system: Lai virus in MT2 cells, intracellular viral DNA; assay: Inhibition of double-stranded proviral DNA production (Taqman real-time PCR); format: cell-based, HIV-1; details: 10 or 25 μM of compound, FIG. 2
Procedure: (§5) The MT2 cells were concentrated at 15×10^6/ml and incubated for 2 h with 10 or 25 μM of compound A. The Lai virus is then added at a multiplicity of infection of 0.01 for 1 h. The cells are washed and then incubated in culture medium containing 10 or 25 μM of the compound to be tested. A sample of 1×10^6 cells is taken at various times and the viral DNA is quantified by means of a Taqman real-time PCR method. The viral RNA loads are quantified in the culture medium (Cobas AmpliPrep/Cobas TaqMan (CTM) HIV-1 v2 test).

[16] = system: Lai virus in MT2 cells, extracellular viral RNA; assay: Inhibition of viral RNA production in culture medium (Cobas TaqMan HIV-1 v2 test); format: cell-based
Procedure: as §5

[17] = amount of HIV corresponding to 3 ng of p24 antigen

SMILES: O=C(O[C@@H]1[C@H](OC(=O)c2ccccc2)[C@H](n2cnc3c(N(C(=O)c4ccccc4)C(=O)c4ccccc4)ncnc32)O[C@@H]1CO)c1ccccc1 (stereo in doubt) [compound A, N^6,N^6,O^2′,O^3′-tetrabenzoyladenosine]
- Viral production (10 μM of compound) [1, 17]: 0%
- IC50 ([1]; Human immunodeficiency virus 1, HeLaP4, amount of HIV corresponding to 3 ng of p24 antigen, FIG. 1): 1 to 2 µM
- Resistance index ([1]; {}): 1
- Resistance index (fold change) ([1]; {}): 1 fold change
- Resistance index [2]: 0.89
- Resistance index [3]: 1
- Resistance index (fold change) [4]: 1.07 fold change
- Resistance index (fold change) [5]: 0.92 fold change
- Resistance index (fold change) [6]: 0.58 fold change
- Resistance index (fold change) [7]: 0.99 fold change
- Resistance index (fold change) [8]: 0.38 fold change
- Resistance index (fold change) [9]: 0.41 fold change
- Resistance index [10]: 1.04
- Resistance index [11]: 0.99
- Resistance index [12]: 0.88
- IC50 [13]: 1.6 µM
- CC50 ([14]; African green monkey, Vero cells): > 100 µM
- CC50 ([14]; FH cells): > 100 µM
- CC50 ([14]; human, HeLa-CD4 cells): > 100 µM
- CC50 ([14]; human, MT2 cells): > 100 µM
- CC50 ([14]; human, SupT1 cells): > 100 µM
- appearance of the intracellular viral DNA [15]: inhibited
- production of the extracellular viral RNA ([16]; 10 or 25 μM of compound, FIG. 3): inhibited
- inhibition of the viral load, comparison with AZT (zidovudine) ([16]; FIGS. 2 and 3): clear superiority

SMILES: O=C(Nc1ncnc2c1ncn2[C@@H]1O[C@H](CO)[C@H](OC(=O)c2ccccc2)[C@@H]1OC(=O)c1ccccc1)c1ccccc1 [reference compound]
- Viral production (10 μM of compound) [1, 17]: 109%
